Test results reported in publication PMC8371548 (BioTechniques, 2021).
“Also recorded” adds a separate entry of the source.

How the values were obtained:
H295R cells = test: H295R cell-based steroidogenesis assay; design: species or system human; conditions: for effect on testosterone production in words: 10^−11 to 10^−5 M
AR [1] = conditions: cited from earlier work; for EC50: read-out: AR-EcoScreen assay EC50, ref Dennis et al. [18]
AR [2] = conditions: cited from earlier work
androgen receptor (AR) = target: T1, androgen receptor (AR) (Homo sapiens, UniProt P10275); type: cell-based
T1 sequence (P10275 1-920): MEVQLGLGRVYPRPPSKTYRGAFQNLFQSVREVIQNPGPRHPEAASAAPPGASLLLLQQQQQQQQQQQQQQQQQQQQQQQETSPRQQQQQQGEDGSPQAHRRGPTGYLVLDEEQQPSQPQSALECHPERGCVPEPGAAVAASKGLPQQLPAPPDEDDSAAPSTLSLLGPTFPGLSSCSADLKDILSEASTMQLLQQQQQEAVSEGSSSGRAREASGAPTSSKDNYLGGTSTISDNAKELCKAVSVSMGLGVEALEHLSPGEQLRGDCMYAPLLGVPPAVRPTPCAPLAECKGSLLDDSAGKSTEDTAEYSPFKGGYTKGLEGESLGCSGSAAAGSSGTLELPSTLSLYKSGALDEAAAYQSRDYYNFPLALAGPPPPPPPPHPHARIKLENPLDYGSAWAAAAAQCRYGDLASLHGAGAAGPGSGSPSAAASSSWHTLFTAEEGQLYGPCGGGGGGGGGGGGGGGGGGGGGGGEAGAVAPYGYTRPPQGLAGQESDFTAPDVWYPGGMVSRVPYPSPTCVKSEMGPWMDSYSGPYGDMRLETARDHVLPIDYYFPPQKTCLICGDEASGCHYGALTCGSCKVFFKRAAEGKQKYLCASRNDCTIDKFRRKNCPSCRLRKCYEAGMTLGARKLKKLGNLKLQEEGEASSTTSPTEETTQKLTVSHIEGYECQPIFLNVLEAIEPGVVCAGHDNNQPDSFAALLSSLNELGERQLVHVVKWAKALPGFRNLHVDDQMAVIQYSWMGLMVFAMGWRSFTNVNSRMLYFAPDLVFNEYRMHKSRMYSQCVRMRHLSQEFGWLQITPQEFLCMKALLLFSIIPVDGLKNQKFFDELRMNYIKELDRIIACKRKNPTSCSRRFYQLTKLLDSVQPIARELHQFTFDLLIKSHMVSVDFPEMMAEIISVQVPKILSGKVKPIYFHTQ

AR [3] = conditions: read-out: IC50 range in ICCVAM meta-analysis; cited from earlier work
AR [4] = conditions: cited from earlier work; remark: listed apart in the source
AR [5] = conditions: cited from earlier work; remark: listed apart in the source
AR [6] = conditions: at high concentrations (10^−5 M); cited from earlier work

C#CC1(O)CC[C@H]2[C@@H]3CCC4=CC(=O)CC[C@@H]4[C@H]3CC[C@@]21CC (mixture of isomers) [Norgestrel, norgestrel]
effect on testosterone production in words (H295R cells): increased testosterone production | EC50 (H295R cells; Homo sapiens, NCI-H295R, read-out: H295R testosterone assay EC50): 730 nM

C#C[C@]1(O)CC[C@H]2[C@@H]3CCc4cc(O)ccc4[C@H]3CC[C@@]21C [17α-Ethinylestradiol, 17α-Ethynylestradiol]
AR antagonist classification in AR-EcoScreen assay (AR [2]): AR antagonist

C[C@]12C=CC3=C4CCC(=O)C=C4CC[C@H]3[C@@H]1CC[C@@H]2O [17β-Trenbolone, 17ß-Trenbolone]
AR agonist activity in words (androgen receptor (AR)): strongly induced autobioluminescence; also recorded: induced autobioluminescent signal exceeding the maximal response of 5α-dihydrotestosterone

C[C@]12C[C@H](O)[C@H]3[C@@H](CCC4=CC(=O)CC[C@@]43C)[C@@H]1CC[C@@H]2C(=O)CO [Corticosterone]
AR transcriptional activity in MDA-kb2 assay (AR [4]): Positive AR transcriptional activity | AR agonist classification in AR-EcoScreen assay (AR [1]): Positive AR transcriptional activity | AR agonistic effects in yeast-based reporter assays (AR [5]): failed to elicit positive AR agonistic effects

CC(C)C(=O)Nc1ccc([N+](=O)[O-])c(C(F)(F)F)c1 [Flutamide]
effect on testosterone production in words (H295R cells): did not induce autobioluminescence or change testosterone production | effect on testosterone production in words (H295R cells; listed as flutamide): did not demonstrate a detectable change in testosterone production

CC(C)(O)C(=O)Nc1ccc([N+](=O)[O-])c(C(F)(F)F)c1 [Hydroxyflutamide]
effect on testosterone production in words (H295R cells): did not alter testosterone production | effect on testosterone production in words (H295R cells; listed as hydroxyflutamide): did not change testosterone levels | AR transcriptional activation activity (AR [6]): low AR transcriptional activation activity | IC50 (AR [3]): […]

CC(=O)N1CCN(c2ccc(OCC3COC(Cn4ccnc4)(c4ccc(Cl)cc4Cl)O3)cc2)CC1 (stereo not drawn) [Ketoconazole]
AR agonist classification in AR-EcoScreen assay (AR [1]): negative AR agonist | AR agonism response in yeast assays (AR [5]): positive AR agonism response

C[C@]12CC[C@H]3[C@@H](CCC4=CC(=O)CC[C@@]43C)[C@@H]1CC[C@@H]2O [Testosterone]
EC50 (AR [1]): […]
